Data as given in PubChem BioAssay (NCI).
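Tested at 5 concentrations; 48 h exposure; 96-well plates; endpoints linearly interpolated, else capped at highest concentration. GI50: concentration for 50% inhibition of growth. Definition used: TGI = concentration required for complete inhibition of growth.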

Tests used:
Assay in all cases: NCI anticancer screen, dose series, 48 h
[1] = test system: 786-0 renal
[2] = test system: A498 renal
[3] = test system: A549 NSCLC
[4] = test system: ACHN renal
[5] = test system: BT-549 breast
[6] = test system: CAKI-1 renal
[7] = test system: CCRF-CEM leukemia
[8] = test system: COLO 205 colon
[9] = test system: DU-145 prostate
[10] = test system: EKVX NSCLC
[11] = test system: HCC-2998 colon
[12] = test system: HCT-116 colon
[13] = test system: HCT-15 colon
[14] = test system: HL-60(TB) leukemia
[15] = test system: HOP-62 NSCLC
[16] = test system: HS 578T breast
[17] = test system: HT29 colon
[18] = test system: IGROV1 ovarian
[19] = test system: K-562 leukemia
[20] = test system: KM12 colon
[21] = test system: LOX IMVI melanoma
[22] = test system: M14 melanoma
[23] = test system: MALME-3M melanoma
[24] = test system: MCF7 breast
[25] = test system: MDA-MB-231 breast
[26] = test system: MOLT-4 leukemia
[27] = test system: NCI-H226 lung
[28] = test system: NCI-H23 lung
[29] = test system: NCI-H460 lung
[30] = test system: NCI-H522 lung
[31] = test system: NCI/ADR-RES ovarian
[32] = test system: OVCAR-3 ovarian
[33] = test system: OVCAR-4 ovarian
[34] = test system: OVCAR-5 ovarian
[35] = test system: OVCAR-8 ovarian
[36] = test system: PC-3 prostate
[37] = test system: RPMI-8226 leukemia
[38] = test system: RXF 393 renal
[39] = test system: SF-268 CNS
[40] = test system: SF-295 CNS
[41] = test system: SF-539 CNS
[42] = test system: SK-MEL-2 melanoma
[43] = test system: SK-MEL-28 melanoma
[44] = test system: SK-MEL-5 melanoma
[45] = test system: SN12C renal
[46] = test system: SNB-19 CNS
[47] = test system: SNB-75 CNS
[48] = test system: SR leukemia
[49] = test system: SW-620 colon
[50] = test system: U251 CNS
[51] = test system: UACC-257 melanoma
[52] = test system: UACC-62 melanoma
[53] = test system: UO-31 renal

For `Nc1c(C(=O)Nc2ccccn2)sc2nc3c(cc12)C(O)CCC3` (stereo unspecified), the GI50 [1] was 1950 nM, the TGI [1] was over 50 µM and the GI50 [2] was 1530 nM. The TGI [2] was over 50 µM, the GI50 [3] was 2600 nM and the TGI [3] was over 50 µM. For the same molecule, the GI50 [4] was 10.7 µM, the TGI [4] was over 50 µM and the GI50 [5] was 3.47 µM. The TGI [5] was over 50 µM, the GI50 [6] was 2920 nM and the TGI [6] was over 50 µM. The GI50 [7] was 906 nM, the TGI [7] was over 50 µM and the GI50 [8] was 2510 nM. The TGI [8] was over 50 µM, the GI50 [9] was 1940 nM and the TGI [9] was over 50 µM. It also gave a GI50 [10] of 3.29 µM, a TGI [10] of over 50 µM and a GI50 [11] of 1850 nM. For the same molecule, the TGI [11] was over 50 µM, the GI50 [12] was 1720 nM and the TGI [12] was over 50 µM. For the same molecule, the GI50 [13] was 1690 nM, the TGI [13] was over 50 µM and the GI50 [14] was 562 nM. It also gave a TGI [14] of over 50 µM, a GI50 [15] of 2900 nM and a TGI [15] of over 50 µM. It also gave a GI50 [16] of 2070 nM, a TGI [16] of over 50 µM and a GI50 [17] of 1550 nM. For the same molecule, the TGI [17] was over 50 µM, the GI50 [18] was 3.27 µM and the TGI [18] was over 50 µM. It also gave a GI50 [19] of 319 nM, a TGI [19] of over 50 µM and a GI50 [20] of 1950 nM. For the same molecule, the TGI [20] was over 50 µM, the GI50 [21] was 3.09 µM and the TGI [21] was over 50 µM. The GI50 [22] was 949 nM, the TGI [22] was over 50 µM and the GI50 [23] was 19.3 µM. It also gave a TGI [23] of over 50 µM, a GI50 [24] of 1020 nM and a TGI [24] of over 50 µM. It also gave a GI50 [25] of 18.3 µM, a TGI [25] of over 50 µM and a GI50 [26] of 2080 nM. It also gave a TGI [26] of over 50 µM, a GI50 [27] of over 50 µM and a TGI [27] of over 50 µM. It also gave a GI50 [28] of 3.05 µM, a TGI [28] of over 50 µM and a GI50 [29] of 1880 nM. It also gave a TGI [29] of over 50 µM, a GI50 [30] of 815 nM and a TGI [30] of 2020 nM. It also gave a GI50 [31] of 1830 nM, a TGI [31] of over 50 µM and a GI50 [32] of 1350 nM. It also gave a TGI [32] of 4.11 µM, a GI50 [33] of over 50 µM and a TGI [33] of over 50 µM. The GI50 [34] was 2540 nM, the TGI [34] was over 50 µM and the GI50 [35] was 2190 nM. The TGI [35] was over 50 µM, the GI50 [36] was 1340 nM and the TGI [36] was over 50 µM. The GI50 [37] was 1840 nM, the TGI [37] was over 50 µM and the GI50 [38] was 1690 nM. For the same molecule, the TGI [38] was over 50 µM, the GI50 [39] was 2940 nM and the TGI [39] was over 50 µM. It also gave a GI50 [40] of 1740 nM, a TGI [40] of over 50 µM and a GI50 [41] of 1470 nM. For the same molecule, the TGI [41] was over 50 µM, the GI50 [42] was 1340 nM and the TGI [42] was over 50 µM. The GI50 [43] was over 50 µM, the TGI [43] was over 50 µM and the GI50 [44] was 1470 nM. For the same molecule, the TGI [44] was over 50 µM, the GI50 [45] was 2570 nM and the TGI [45] was over 50 µM. It also gave a GI50 [46] of 2130 nM, a TGI [46] of over 50 µM and a GI50 [47] of 1660 nM. The TGI [47] was over 50 µM, the GI50 [48] was 179 nM and the TGI [48] was over 50 µM. It also gave a GI50 [49] of 1620 nM, a TGI [49] of over 50 µM and a GI50 [50] of 1870 nM. For the same molecule, the TGI [50] was over 50 µM, the GI50 [51] was over 50 µM and the TGI [51] was over 50 µM. For the same molecule, the GI50 [52] was 1750 nM, the TGI [52] was over 50 µM and the GI50 [53] was 3.68 µM. It also gave a TGI [53] of over 50 µM.
